Results taken from ChEMBL document CHEMBL5346930, “Discovery of novel N-benzylarylamide-dithiocarbamate based derivatives as dual inhibitors of tubulin polymerization and LSD1 that inhibit gastric cancers” (Eur J Med Chem, 2023).
The source made the active and inactive calls. The calls are words filed in the database; no cut-off is given here.

Key:
[1] = tested on: HGC-27; experiment: Antiproliferative activity against human HGC-27 cells assessed as inhibition of cell growth incubated for 48 hrs by MTT assay; type: functional, cell-based; details: HGC-27, 48 h
[2] = tested on: SGC-7901; experiment: Induction of apoptosis in human SGC-7901 cells assessed as increase in total apoptotic cells incubated for 48 hrs by Annexin-FITC/PI staining based flow cytometry analysis; type: functional, cell-based; details: dose 0-30 nmol/L
[3] = tested on: MGC-803; experiment: Induction of apoptosis in human MGC-803 cells assessed as downregulation of Bcl-2 protein expression incubated for 48 hrs by Western blot analysis; type: functional, cell-based; details: dose 0-24 nmol/L
[4] = tested on: SGC-7901; experiment: Induction of apoptosis in human SGC-7901 cells assessed as increase in cleaved caspase-7 level at 0 to 30 nmol/L incubated for 48 hrs by Western blot analysis; type: functional, cell-based; details: dose 0-30 nmol/L
[5] = tested on: SGC-7901; experiment: Induction of morphological changes in human SGC-7901 cells assessed as varied size of nucleus at 0 to 30 nmol/L incubated for 48 hrs by DAPI staining based analysis; type: functional, cell-based; details: dose 0-30 nmol/L
[6] = molecular target: T1, Lysine-specific histone demethylase 1A (Homo sapiens, UniProt O60341); experiment: Inhibition of LSD1 in human SGC-7901 cells assessed as increase in H3K4me1 expression level at 0 to 30 nmol/L incubated for 48 hrs by Western blot analysis; type: cell-based; details: dose 0-30 nmol/L
[7] = tested on: A549; experiment: Antiproliferative activity against human A549 cells assessed as inhibition of cell growth incubated for 48 hrs by MTT assay; type: functional, cell-based; details: A549, 48 h
[8] = tested on: TE-1; experiment: Antiproliferative activity against human TE-1 cells assessed as inhibition of cell growth incubated for 48 hrs by MTT assay; type: functional, cell-based; details: TE-1, 48 h
[9] = tested on: SGC-7901; experiment: Inhibition of cell migration in human SGC-7901 cells assessed as reduction in number of cells crossing membrane at 4 nmol/L measured after 48 hrs by transwell assay; type: functional, cell-based
[10] = tested on: SGC-7901; experiment: Induction of apoptosis in human SGC-7901 cells assessed as activation of caspase-3 at 0 to 30 nmol/L incubated for 48 hrs by Western blot analysis; type: functional, cell-based; details: dose 0-30 nmol/L
[11] = tested on: SGC-7901; experiment: Induction of morphological changes in human SGC-7901 cells assessed as appearance of bright and shrunken nucleus at 0 to 30 nmol/L incubated for 48 hrs by DAPI staining based analysis; type: functional, cell-based; details: dose 0-30 nmol/L
[12] = molecular target: T2, Tubulin beta (Homo sapiens) (UniProt P68371+Q9H4B7+Q13509+P04350+Q3ZCM7+P07437+Q13885+Q9BVA1+Q9BUF5+A6NNZ2); experiment: Binding affinity to colchicine binding site of beta-tubulin in human MGC-803 cells assessed as inhibition of beta-tubulin alkylation by measuring disappearance of beta-tubulin-EBI adduct band pretreated for 2 hrs followed by EBI addition and measured after 2 hrs by Western blot analysis; type: cell-based; details: dose 0-10 µM, time 4.0 hrs
[13] = tested on: MGC-803; experiment: Antitumor activity against human MGC-803 cells xenografted in BALB/c nude mouse assessed as tumor growth inhibition at 25 mg/kg/day, ip administered every day for 21 days; type: functional, organism-based; details: time 21.0 day
[14] = molecular target: T2, Tubulin beta (Homo sapiens); experiment: Binding affinity to colchicine binding site of beta-tubulin in human SGC-7901 cells assessed as inhibition of beta-tubulin alkylation by measuring disappearance of beta-tubulin-EBI adduct band pretreated for 2 hrs followed by EBI addition and measured after 2 hrs by Western blot analysis; type: cell-based; details: dose 0-10 µM, time 4.0 hrs
[15] = tested on: MGC-803; experiment: Antiproliferative activity against human MGC-803 cells assessed as inhibition of cell growth incubated for 48 hrs by MTT assay
[16] = tested on: MGC-803; experiment: Induction of cell cycle arrest in human MGC-803 cells assessed as accumulation of cells at G2/M phase incubated for 48 hrs; type: functional, cell-based; details: dose 0-24 nmol/L
[17] = tested on: SGC-7901; experiment: Induction of morphological changes in human SGC-7901 cells assessed as increase in proportion of dead cells at 0 to 30 nmol/L incubated for 48 hrs by calcein-AM/PI staining based analysis; type: functional, cell-based; details: dose 0-30 nmol/L
[18] = tested on: GES1; experiment: Cytotoxicity against human GES1 cells assessed as reduction in cell viability at 0 to 30 nM incubated for 48 hrs by MTT assay; type: toxicity, cell-based; details: ges1, 48 h, 0.03 µM, dose 0-30 nM
[19] = molecular target: T1, Lysine-specific histone demethylase 1A; experiment: Inhibition of recombinant LSD1 (unknown origin) using H3K4me2 peptide as substrate preincubated for 10 mins followed by substrate addition and measured after 30 mins by amplex red based fluorescence microplate reader analysis
[20] = tested on: SGC-7901; experiment: Inhibition of cell migration in human SGC-7901 cells assessed as reduction in rate of wound healing at 4 nmol/L measured after 0 to 48 hrs; type: functional, cell-based; details: time 0-48 hrs
[21] = tested on: MGC-803; experiment: Induction of DNA damage in human MGC-803 cells assessed as DNA fragmentation by measuring increase in comet tails by fluorescence microscope based comet assay; type: functional, cell-based; details: dose 0-24 nmol/L
[22] = tested on: MGC-803; experiment: Induction of cell cycle arrest in human MGC-803 cells assessed as downregulation of CDC2 protein expression incubated for 48 hrs by Western blot analysis; type: functional, cell-based; details: dose 0-24 nmol/L
[23] = tested on: MGC-803; experiment: Induction of apoptosis in human MGC-803 cells assessed as increase in cleaved caspase-7 level at 0 to 24 nmol/L incubated for 48 hrs by Western blot analysis; type: functional, cell-based; details: dose 0-24 nmol/L
[24] = tested on: MGC-803; experiment: Induction of cell cycle arrest in human MGC-803 cells assessed as reduction in CDC2 phosphorylation at Thr161 residue at 0 to 24 nmol/L incubated for 48 hrs by Western blot analysis; type: functional, cell-based; details: dose 0-24 nmol/L
[25] = tested on: MGC-803; experiment: Induction of cell cycle arrest in human MGC-803 cells assessed as downregulation of Wee1 protein expression incubated for 48 hrs by Western blot analysis; type: functional, cell-based; details: dose 0-24 nmol/L
[26] = Hepatotoxicity in BALB/c nude mouse xenografted with human MGC-803 cells assessed as effect on AST level at 25 mg/kg/day, ip administered every day for 21 days; type: toxicity, organism-based; details: in vivo, 504 h, time 21 day
[27] = tested on: MGC-803; experiment: Inhibition of cell migration in human MGC-803 cells assessed as reduction in rate of wound healing at 4 nmol/L measured after 0 to 48 hrs; type: functional, cell-based; details: time 0-48 hrs
[28] = tested on: MGC-803; experiment: Induction of apoptosis in human MGC-803 cells assessed as downregulation of Mcl-1 protein expression incubated for 48 hrs by Western blot analysis; type: functional, cell-based; details: dose 0-24 nmol/L
[29] = tested on: KYSE-450; experiment: cells; details: Homo sapiens, KYSE-450, 48 h
Description: Antiproliferative activity against human KYSE-450 cells assessed as inhibition of cell growth incubated for 48 hrs by MTT assay

[30] = tested on: MGC-803; experiment: Induction of cell cycle arrest in human MGC-803 cells assessed as reduction in cyclin B1 protein expression incubated for 48 hrs by Western blot analysis; type: functional, cell-based; details: dose 0-24 nmol/L
[31] = tested on: Huh-7; experiment: Antiproliferative activity against human Huh-7 cells assessed as inhibition of cell growth incubated for 48 hrs by MTT assay; type: functional, cell-based; details: Huh-7, 48 h
[32] = tested on: MGC-803; experiment: Induction of morphological changes in human MGC-803 cells assessed as varied size of nucleus at 0 to 24 nmol/L incubated for 48 hrs by DAPI staining based analysis; type: functional, cell-based; details: dose 0-24 nmol/L
[33] = tested on: SGC-7901; experiment: Induction of apoptosis in human SGC-7901 cells assessed as increase in cleaved PARP level at 0 to 30 nmol/L incubated for 48 hrs by Western blot analysis; type: functional, cell-based; details: dose 0-30 nmol/L
[34] = tested on: MGC-803; experiment: Induction of morphological changes in human MGC-803 cells assessed as increase in proportion of dead cells at 0 to 24 nmol/L incubated for 48 hrs by calcein-AM/PI staining based analysis; type: functional, cell-based; details: dose 0-24 nmol/L
[35] = tested on: SGC-7901; experiment: Induction of cell cycle arrest in human SGC-7901 cells assessed as reduction in CDC2 phosphorylation at Thr161 residue at 0 to 30 nmol/L incubated for 48 hrs by Western blot analysis; type: functional, cell-based; details: dose 0-30 nmol/L

Compound: COc1ccc(CN(C(=O)CSC(=S)N2CCN(c3ccc(N)cc3)CC2)c2cc(OC)c(OC)c(OC)c2)cc1O
- IC50 [1]: 24.5 nM
- Activity [2]: Dose-Dependent Effect
- Activity [3]: Dose-Dependent Effect
- Activity [4]: Active
- Activity [5]: Active
- inhibition [6]: Active
- IC50 [7]: 254 nM
- IC50 [8]: 31.4 nM
- inhibition [9]: Active
- Activity [10]: Active
- Activity [11]: Active
- Activity [12]: Dose-Dependent Effect
- Activity [13]: Active
- Activity [14]: Dose-Dependent Effect
- Activity [15]: Dose-Dependent Effect
- Activity [16]: Dose-Dependent Effect
- Activity [17]: Active
- Activity [18]: Non-Toxic
- IC50 [19]: 2810 nM
- inhibition [20]: Active
- Activity [21]: Dose-Dependent Effect
- Activity [22]: Dose-Dependent Effect
- Activity [23]: Active
- Activity [24]: Active
- Activity [25]: Dose-Dependent Effect
- Activity [26]: Non-Toxic
- inhibition [27]: Active
- Activity [28]: Dose-Dependent Effect
- IC50 [29]: 30 nM
- Activity [30]: Dose-Dependent Effect
- IC50 [31]: 47.9 nM
- Activity [32]: Active
- Activity [33]: Active
- Activity [34]: Active
- Activity [35]: Active
